Data: PubChem BioAssay (NCI)
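Interpolation was linear, between the two tested concentrations surrounding the appropriate level; five concentrations were tested over 48 hours in 96-well plates. The concentration for 50% growth inhibition is given as GI50. The concentration for full growth arrest is given as TGI.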

Legend:
Assay in all cases: NCI tumour cell line growth inhibition, 48 h
OVCAR-5 ovarian = tested on: OVCAR-5 ovarian
UO-31 renal = tested on: UO-31 renal
HOP-92 NSCLC = tested on: HOP-92 NSCLC
OVCAR-4 ovarian = tested on: OVCAR-4 ovarian
DU-145 prostate = tested on: DU-145 prostate
SF-539 CNS = tested on: SF-539 CNS
MDA-MB-231 breast = tested on: MDA-MB-231 breast
ACHN renal = tested on: ACHN renal
TK-10 renal = tested on: TK-10 renal
RXF 393 renal = tested on: RXF 393 renal
OVCAR-8 ovarian = tested on: OVCAR-8 ovarian
A498 renal = tested on: A498 renal
SK-MEL-28 melanoma = tested on: SK-MEL-28 melanoma
SNB-75 CNS = tested on: SNB-75 CNS
LOX IMVI melanoma = tested on: LOX IMVI melanoma
UACC-62 melanoma = tested on: UACC-62 melanoma

## C=C(C)[C@@H]1CC[C@]2(COCCCNCCCN)CC[C@]3(C)[C@H](CC[C@@H]4[C@@]5(C)CC[C@H](O)C(C)(C)[C@@H]5CC[C@]43C)[C@@H]12
OVCAR-5 ovarian
  GI50: 1750 nM
  TGI: 3230 nM
UO-31 renal
  GI50: 1600 nM
  TGI: 3030 nM
HOP-92 NSCLC
  GI50: 1520 nM
  TGI: 3140 nM
OVCAR-4 ovarian
  GI50: 1960 nM
  TGI: 3730 nM
DU-145 prostate
  GI50: 1940 nM
  TGI: 3490 nM
SF-539 CNS
  GI50: 1770 nM
  TGI: 3390 nM
MDA-MB-231 breast
  GI50: 1850 nM
  TGI: 3490 nM
ACHN renal
  GI50: 1780 nM
  TGI: 3240 nM
TK-10 renal
  GI50: 1840 nM
  TGI: 3560 nM
RXF 393 renal
  GI50: 1570 nM
  TGI: 2960 nM
OVCAR-8 ovarian
  GI50: 2140 nM
  TGI: 4880 nM
A498 renal
  GI50: 1850 nM
  TGI: 4210 nM
SK-MEL-28 melanoma
  GI50: 1750 nM
  TGI: 3370 nM
SNB-75 CNS
  GI50: 1730 nM
  TGI: 3370 nM
LOX IMVI melanoma
  GI50: 234 nM
  TGI: 2280 nM
UACC-62 melanoma
  GI50: 1770 nM
  TGI: 3390 nM
